According to patent publication US20120132797A1, “MEANS AND METHODS FOR DIAGNOSING THYROID DISORDERS” (BASF SE, priority 2009, published 2012):
“And” between values parts separate entries of the source, which are not always exact repeats. Equal values may be shown once. One block for each compound: values may come before it.

System: Wistar (Crl:WI(Han)) rats
Experiment: Mass spectrometry-based plasma metabolite profiling of rats treated with known inducers of thyroid function impairment
Type: in vivo, rat
Conditions: ratio of group medians vs controls
From the text: At the beginning of the study the animals were 10-11 weeks old. Each dose group in the studies consisted of five rats per sex, and was compared with controls (10 rats per sex). […] The dose levels were chosen to show the typical overt (high dose) and slight (low dose) toxicological symptoms of the substances as described in the literature or in BASF internal study reports.
Blood samples were withdrawn from the retro-orbital sinus in all rats under isoflurane anesthesia on study days 7, 14 and 28 after a fasting period of 16-20 hours.
For mass spectrometry-based metabolite profiling analysis, plasma samples were extracted by a proprietary method which delivers a polar and a non-polar fraction. For GC-MS analysis, the non-polar fraction was treated with methanol under acidic conditions to yield the fatty acid methyl esters. Both fractions were further derivatised with Omethyl-hydroxyamine hydrochloride and pyridine to convert oxo groups to Omethyloximes and subsequently with a silylating agent before analysis.
In LC-MS/MS analysis, both fractions were reconstituted in appropriate solvent mixtures. HPLC was performed by gradient elution on reversed phase separation columns. For mass spectrometric detection metanomics proprietary technology was applied, which allows target and high sensitivity MRM (Multiple Reaction Monitoring) profiling in parallel to a full screen analysis. […] Moreover, several hundred additional analytes giving a fingerprint of the sample were included in the methods.
Following comprehensive analytical validation steps, the data for each analyte were normalized against data from pool samples. These samples were run in parallel through the whole process to account for process variability.
The sex- and day-stratified heteroscedastic t-test (“Welch test”) was applied to compare treated groups with respective controls. p-Values and ratios of corresponding group medians were collected as metabolic profiles and fed into a database.

[1] = female rats, fh7 (study day 7), Table 1
[2] = female rats, fh7 (study day 7), Table 1, first listing
[3] = female rats, fh7 (study day 7), Table 1, second listing
[4] = female rats, fh14 (study day 14), Table 1
[5] = female rats, fh14 (study day 14), Table 1, first listing
[6] = female rats, fh14 (study day 14), Table 1, second listing
[7] = female rats, fh28 (study day 28), Table 1
[8] = female rats, fh28 (study day 28), Table 1, first listing
[9] = female rats, fh28 (study day 28), Table 1, second listing
[10] = male rats, mh7 (study day 7), Table 2
[11] = male rats, mh7 (study day 7), Table 2, first listing
[12] = male rats, mh7 (study day 7), Table 2, second listing
[13] = male rats, mh14 (study day 14), Table 2
[14] = male rats, mh14 (study day 14), Table 2, first listing
[15] = male rats, mh14 (study day 14), Table 2, second listing
[16] = male rats, mh28 (study day 28), Table 2
[17] = male rats, mh28 (study day 28), Table 2, first listing
[18] = male rats, mh28 (study day 28), Table 2, second listing

- 5-O-Methylsphingosine [1]: 1.40
- Asparagine [1]: 1.10
- Behenic acid (C22:0) [1]: 1.27
- Citrate [1]: 0.87
- Docosahexaenoic acid (C22:cis[4,7,10,13,16]6) [1]: 1.25
- Glycine [1]: 1.13
- Ketoleucine [1]: 1.05
- Lysophosphatidylcholine (C18:2) [1]: 1.07
- Phosphatidylcholine (C16:1, C18:2) [1]: 1.49
- Phosphatidylcholine (C18:2, C20:4) [1]: 1.20
- Pyruvate [1]: 0.91
- Tricosanoic acid (C23:0) [1]: 1.45
- erythro-Sphingosine [1]: 1.46
- threo-Sphingosine [1]: 1.24
- Sphingomyelin (d18:1, C16:0) [2]: 1.01
- Sphingomyelin (d18:1, C16:0) [3]: 1.26
- 5-O-Methylsphingosine [4]: 1.36
- Asparagine [4]: 1.09
- Behenic acid (C22:0) [4]: 1.14
- Citrate [4]: 0.69
- Docosahexaenoic acid (C22:cis[4,7,10,13,16]6) [4]: 1.14
- Glycine [4]: 1.08
- Ketoleucine [4]: 0.80
- Lysophosphatidylcholine (C18:2) [4]: 1.31
- Phosphatidylcholine (C16:1, C18:2) [4]: 1.37
- Phosphatidylcholine (C18:2, C20:4) [4]: 1.17
- Pyruvate [4]: 0.65
- Tricosanoic acid (C23:0) [4]: 1.30
- erythro-Sphingosine [4]: 1.28
- threo-Sphingosine [4]: 1.29
- Sphingomyelin (d18:1, C16:0) [5]: 1.46
- Sphingomyelin (d18:1, C16:0) [6]: 1.33
- 5-O-Methylsphingosine [7]: 1.20
- Asparagine [7]: 0.93
- Behenic acid (C22:0) [7]: 1.23
- Citrate [7]: 0.66
- Docosahexaenoic acid (C22:cis[4,7,10,13,16]6) [7]: 0.84
- Glycine [7]: 1.05
- Ketoleucine [7]: 0.89
- Lysophosphatidylcholine (C18:2) [7]: 1.26
- Phosphatidylcholine (C16:1, C18:2) [7]: 1.09
- Phosphatidylcholine (C18:2, C20:4) [7]: 1.17
- Pyruvate [7]: 0.73
- Tricosanoic acid (C23:0) [7]: 1.36
- erythro-Sphingosine [7]: 1.24
- threo-Sphingosine [7]: 1.34
- Sphingomyelin (d18:1, C16:0) [8]: 1.62
- Sphingomyelin (d18:1, C16:0) [9]: 1.29
- 3-O-Methylsphingosine [10]: 1.57
- 5-O-Methylsphingosine [10]: 1.50
- 14-Methyl-Pentadecanoic acid [10]: 0.98
- 17-Methyloctadecanoic acid [10]: 1.10
- Arginine [10]: 1.09
- Cholesterol [10]: 1.42
- Citrate [10]: 0.90
- Dihom-gamma-Linolenic acid (C20:cis[8,11,14]3) [10]: 1.02
- Lignoceric acid (C24:0) [10]: 1.28
- Phytosphingosine [10]: 1.11
- Sphingomyelin (d18:1, C16:0) [10]: 1.35
- Tricosanoic acid (C23:0) [10]: 1.28
- alpha-Tocopherol [10]: 1.20
- erythro-Sphingosine [10]: 1.46
- threo-Sphingosine [10]: 1.33
- Glutamate [11]: 0.78
- Glutamate [12]: 1.03
- 3-O-Methylsphingosine [13]: 1.41
- 5-O-Methylsphingosine [13]: 1.38
- 14-Methyl-Pentadecanoic acid [13]: 0.86
- 17-Methyloctadecanoic acid [13]: 0.67
- Arginine [13]: 1.10
- Cholesterol [13]: 0.98
- Citrate [13]: 0.73
- Dihom-gamma-Linolenic acid (C20:cis[8,11,14]3) [13]: 1.33
- Lignoceric acid (C24:0) [13]: 1.12
- Phytosphingosine [13]: 1.07
- Sphingomyelin (d18:1, C16:0) [13]: 1.35
- Tricosanoic acid (C23:0) [13]: 1.10
- alpha-Tocopherol [13]: 1.15
- erythro-Sphingosine [13]: 1.30
- threo-Sphingosine [13]: 1.23
- Glutamate [14]: 0.78
- Glutamate [15]: 0.70
- 3-O-Methylsphingosine [16]: 1.90
- 5-O-Methylsphingosine [16]: 1.82
- 14-Methyl-Pentadecanoic acid [16]: 0.64
- 17-Methyloctadecanoic acid [16]: 0.70
- Arginine [16]: 1.35
- Cholesterol [16]: 1.23
- Citrate [16]: 0.64
- Dihom-gamma-Linolenic acid (C20:cis[8,11,14]3) [16]: 1.50
- Lignoceric acid (C24:0) [16]: 1.16
- Phytosphingosine [16]: 1.20
- Sphingomyelin (d18:1, C16:0) [16]: 1.71
- Tricosanoic acid (C23:0) [16]: 1.55
- alpha-Tocopherol [16]: 1.12
- erythro-Sphingosine [16]: 1.47
- threo-Sphingosine [16]: 1.52
- Glutamate [17]: 0.65
- Glutamate [18]: 0.49
SMILES: CCCc1cc(=O)[nH]c(=S)[nH]1 [6-Propyl-2-thiouracil]

SMILES: S=C1NCCN1 [Ethylenethiourea]
- 5-O-Methylsphingosine [1]: 1.29 and 1.20
- Asparagine [1]: 1.06 and 1.35
- Behenic acid (C22:0) [1]: 1.48 and 1.27
- Citrate [1]: 0.89 and 0.78
- Docosahexaenoic acid (C22:cis[4,7,10,13,16]6) [1]: 1.12 and 1.29
- Glycine [1]: 1.21 and 1.09
- Ketoleucine [1]: 0.93 and 0.84
- Lysophosphatidylcholine (C18:2) [1]: 1.08
- Phosphatidylcholine (C16:1, C18:2) [1]: 1.43 and 1.26
- Phosphatidylcholine (C18:2, C20:4) [1]: 1.09 and 1.02
- Pyruvate [1]: 1.29 and 0.74
- Tricosanoic acid (C23:0) [1]: 1.38 and 1.44
- erythro-Sphingosine [1]: 1.46 and 1.39
- threo-Sphingosine [1]: 1.35 and 1.58
- Sphingomyelin (d18:1, C16:0) [2]: 1.71 and 1.62
- Sphingomyelin (d18:1, C16:0) [3]: 1.29 and 1.46
- 5-O-Methylsphingosine [4]: 1.56 and 1.59
- Asparagine [4]: 1.31 and 1.27
- Behenic acid (C22:0) [4]: 1.29 and 1.69
- Citrate [4]: 0.85 and 0.86
- Docosahexaenoic acid (C22:cis[4,7,10,13,16]6) [4]: 1.45 and 1.24
- Glycine [4]: 1.24 and 1.18
- Ketoleucine [4]: 0.84 and 0.82
- Lysophosphatidylcholine (C18:2) [4]: 1.19 and 1.17
- Phosphatidylcholine (C16:1, C18:2) [4]: 1.43 and 1.54
- Phosphatidylcholine (C18:2, C20:4) [4]: 1.15 and 1.09
- Pyruvate [4]: 0.79 and 1.14
- Tricosanoic acid (C23:0) [4]: 1.52 and 1.30
- erythro-Sphingosine [4]: 1.71 and 1.98
- threo-Sphingosine [4]: 1.47 and 1.61
- Sphingomyelin (d18:1, C16:0) [5]: 1.43 and 1.55
- Sphingomyelin (d18:1, C16:0) [6]: 1.06 and 1.34
- 5-O-Methylsphingosine [7]: 1.63 and 1.59
- Asparagine [7]: 1.26 and 0.84
- Behenic acid (C22:0) [7]: 1.69 and 1.27
- Citrate [7]: 0.70 and 0.91
- Docosahexaenoic acid (C22:cis[4,7,10,13,16]6) [7]: 1.22 and 1.11
- Glycine [7]: 1.32 and 1.01
- Ketoleucine [7]: 0.88 and 0.74
- Lysophosphatidylcholine (C18:2) [7]: 1.10 and 1.23
- Phosphatidylcholine (C16:1, C18:2) [7]: 1.41 and 1.30
- Phosphatidylcholine (C18:2, C20:4) [7]: 1.06 and 1.04
- Pyruvate [7]: 0.69 and 1.04
- Tricosanoic acid (C23:0) [7]: 1.42 and 1.05
- erythro-Sphingosine [7]: 1.51 and 1.35
- threo-Sphingosine [7]: 1.51 and 1.26
- Sphingomyelin (d18:1, C16:0) [8]: 1.70 and 1.38
- Sphingomyelin (d18:1, C16:0) [9]: 1.16 and 1.07
- 3-O-Methylsphingosine [10]: 2.26
- 5-O-Methylsphingosine [10]: 2.36
- 14-Methyl-Pentadecanoic acid [10]: 0.98
- 17-Methyloctadecanoic acid [10]: 0.97
- Arginine [10]: 1.24
- Cholesterol [10]: 1.74
- Citrate [10]: 0.86
- Dihom-gamma-Linolenic acid (C20:cis[8,11,14]3) [10]: 2.34
- Lignoceric acid (C24:0) [10]: 1.94
- Phytosphingosine [10]: 1.53
- Sphingomyelin (d18:1, C16:0) [10]: 1.65
- Tricosanoic acid (C23:0) [10]: 1.67
- alpha-Tocopherol [10]: 2.58
- erythro-Sphingosine [10]: 2.06
- threo-Sphingosine [10]: 2.05
- Glutamate [11]: 1.07
- Glutamate [12]: 1.15
- 3-O-Methylsphingosine [13]: 2.34
- 5-O-Methylsphingosine [13]: 2.37
- 14-Methyl-Pentadecanoic acid [13]: 0.96
- 17-Methyloctadecanoic acid [13]: 0.83
- Arginine [13]: 1.30
- Cholesterol [13]: 2.25
- Citrate [13]: 0.81
- Dihom-gamma-Linolenic acid (C20:cis[8,11,14]3) [13]: 1.84
- Lignoceric acid (C24:0) [13]: 1.66
- Phytosphingosine [13]: 1.67
- Sphingomyelin (d18:1, C16:0) [13]: 1.69
- Tricosanoic acid (C23:0) [13]: 2.01
- alpha-Tocopherol [13]: 2.99
- erythro-Sphingosine [13]: 2.06
- threo-Sphingosine [13]: 2.03
- Glutamate [14]: 0.73
- Glutamate [15]: 0.82
- 3-O-Methylsphingosine [16]: 2.91
- 5-O-Methylsphingosine [16]: 2.78
- 14-Methyl-Pentadecanoic acid [16]: 0.77
- 17-Methyloctadecanoic acid [16]: 0.89
- Arginine [16]: 1.20
- Cholesterol [16]: 1.98
- Citrate [16]: 0.64
- Dihom-gamma-Linolenic acid (C20:cis[8,11,14]3) [16]: 2.68
- Lignoceric acid (C24:0) [16]: 2.07
- Phytosphingosine [16]: 2.17
- Sphingomyelin (d18:1, C16:0) [16]: 1.79
- Tricosanoic acid (C23:0) [16]: 2.39
- alpha-Tocopherol [16]: 3.13
- erythro-Sphingosine [16]: 2.29
- threo-Sphingosine [16]: 2.05
- Glutamate [17]: 0.70
- Glutamate [18]: 0.77
